Data from paper PMC9323422 (Angewandte Chemie (International Ed. in English), 2022).

Columns and labels:
[1] = pH 2
Recombinant human PTP1B = molecular target: T1, Recombinant human PTP1B (Homo sapiens, UniProt P18031); type: biochemical
T1 sequence (P18031 1-435): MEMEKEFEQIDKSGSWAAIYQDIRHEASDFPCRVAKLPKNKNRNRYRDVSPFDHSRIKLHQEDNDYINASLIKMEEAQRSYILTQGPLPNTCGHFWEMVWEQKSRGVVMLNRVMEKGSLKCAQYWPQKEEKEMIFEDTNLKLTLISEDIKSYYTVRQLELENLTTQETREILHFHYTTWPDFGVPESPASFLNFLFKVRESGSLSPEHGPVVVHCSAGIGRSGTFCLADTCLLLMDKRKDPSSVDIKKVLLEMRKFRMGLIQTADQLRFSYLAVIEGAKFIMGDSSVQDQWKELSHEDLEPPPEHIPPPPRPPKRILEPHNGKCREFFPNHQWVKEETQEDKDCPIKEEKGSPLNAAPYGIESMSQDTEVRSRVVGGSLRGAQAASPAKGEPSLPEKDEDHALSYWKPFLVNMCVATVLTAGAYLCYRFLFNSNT

Irradiation experiment = type: physicochemical; conditions: 365 nm, 2 h, room temperature, isopropanol/water (70 : 30)
[2] = Determination of partition coefficients DCM/water; type: physicochemical; conditions: 24 h, room temperature
PTP1B = conditions: cited from earlier work

| Structure (SMILES) | stability of the pentafluorophosphate anion [1] | Ki (Recombinant human PTP1B) [µM] | increase of affinity to PTP1B relative to phosphonate amino acid 1 (Recombinant human PTP1B) [fold] | photostability on irradiation (Irradiation experiment) | Percent compound in DCM (organic phase) [2] [%] | affinity, inhibition of PTP1B phosphatase activity (PTP1B) |
| --- | --- | --- | --- | --- | --- | --- |
| NC(Cc1ccc(C(F)(F)[P-](F)(F)(F)(F)F)cc1)C(=O)O (stereo not drawn) [Compound 3, 4‐pentafluoro‐phosphato‐difluoromethyl‐phenylalanine] | stable | 61 ± 8 | 25 |  |  |  |
| NC(Cc1ccc(C(=O)[P-](F)(F)(F)(F)F)cc1)C(=O)O (stereo not drawn) [Compound 12, 4‐(pentafluorophosphato‐carbonyl)‐phenylalanine] |  | 52 ± 7 | 30 | photoconversion of the PF5 residue |  |  |
| CNC(=O)C(Cc1ccc(C(F)(F)[P-](F)(F)(F)(F)F)cc1)NC(C)=O (stereo not drawn) [Compound 10] |  |  |  |  | 16 |  |
| FC(F)(c1ccccc1)[P-](F)(F)(F)(F)F [Compound 2] |  |  |  |  | 37 | low, millimolar affinity |
